Data taken from ChEMBL document CHEMBL1135794, “Looking for selectivity among cytochrome P450s inhibitors” (J Med Chem, 2002).

Columns and labels:
[1] = target: T1, Steroid 17-alpha-hydroxylase/17,20 lyase (Homo sapiens, UniProt P05093); test: Inhibition of Cytochrome P450 17; Inactive
T1 sequence (P05093 whole entry): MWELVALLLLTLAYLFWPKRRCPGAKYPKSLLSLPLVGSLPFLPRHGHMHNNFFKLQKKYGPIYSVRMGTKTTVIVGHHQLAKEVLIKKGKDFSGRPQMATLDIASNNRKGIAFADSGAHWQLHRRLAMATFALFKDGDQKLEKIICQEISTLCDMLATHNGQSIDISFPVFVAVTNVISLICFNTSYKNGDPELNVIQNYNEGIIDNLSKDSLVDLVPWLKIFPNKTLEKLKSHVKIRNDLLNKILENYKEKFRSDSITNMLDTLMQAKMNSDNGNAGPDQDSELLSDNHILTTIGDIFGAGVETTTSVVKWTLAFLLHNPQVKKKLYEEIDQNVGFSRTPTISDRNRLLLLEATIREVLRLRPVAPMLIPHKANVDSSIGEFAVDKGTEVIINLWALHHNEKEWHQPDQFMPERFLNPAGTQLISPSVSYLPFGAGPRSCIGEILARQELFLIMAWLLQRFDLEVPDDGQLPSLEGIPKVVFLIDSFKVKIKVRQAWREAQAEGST

[2] = target: T1, Steroid 17-alpha-hydroxylase/17,20 lyase; test: Inhibition of Cytochrome P450 17

N#Cc1ccc(Cn2ccnc2)c2oc3ccccc3c(=O)c12
IA [1]: Not Active

O=c1c2ccccc2oc2c(Br)ccc(Cn3ccnc3)c12
Inhibition [2]: 42 nM
